Measurements: ChEMBL document CHEMBL1201862, “PubChem BioAssay data set” (2004)
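Test compounds were applied to cells in 96-well plates for 48 hours at 5 doses. At the GI50, growth is halved.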 Activity calls are given as the source filed them. Rule as the data show it: active = GI50 up to about 1.1 µM and inactive = higher.

Legend:
Assay in all cases: NCI-60 cell line screen, 48 h
NCI-H460 = system: NCI-H460
NCI/ADR-RES = system: NCI/ADR-RES
CAKI-1 = system: CAKI-1
A549 = system: A549
SK-MEL-2 = system: SK-MEL-2
RXF 393 = system: RXF 393
HOP-92 = system: HOP-92
Malme-3M = system: Malme-3M
K562 = system: K562
NCI-H522 = system: NCI-H522
SR = system: SR
SF-539 = system: SF-539
T47D = system: T47D
MDA-MB-435 = system: MDA-MB-435
RPMI-8226 = system: RPMI-8226
SF-268 = system: SF-268
KM12 = system: KM12
MDA-MB-231 = system: MDA-MB-231
SK-MEL-28 = system: SK-MEL-28
HOP-62 = system: HOP-62
TK-10 = system: TK-10
HT-29 = system: HT-29
UO-31 = system: UO-31
IGROV-1 = system: IGROV-1
U-251 = system: U-251
EKVX = system: EKVX
OVCAR-4 = system: OVCAR-4
MOLT-4 = system: MOLT-4
BT-549 = system: BT-549
SK-MEL-5 = system: SK-MEL-5
LOX IMVI = system: LOX IMVI
MDA-N = system: MDA-N
SK-OV-3 = system: SK-OV-3
SNB-19 = system: SNB-19
Hs-578T = system: Hs-578T
UACC-257 = system: UACC-257
HL-60 = system: HL-60
OVCAR-3 = system: OVCAR-3
PC-3 = system: PC-3
HCT-116 = system: HCT-116
ACHN = system: ACHN
HCC 2998 = system: HCC 2998
SF-295 = system: SF-295
SN12C = system: SN12C
NCI-H226 = system: NCI-H226
COLO 205 = system: COLO 205
786-0 = system: 786-0
HCT-15 = system: HCT-15
CCRF-CEM = system: CCRF-CEM
MCF7 = system: MCF7
A498 = system: A498
M14 = system: M14
DU-145 = system: DU-145
NCI-H23 = system: NCI-H23
OVCAR-8 = system: OVCAR-8
OVCAR-5 = system: OVCAR-5
UACC-62 = system: UACC-62
SW-620 = system: SW-620
SNB-75 = system: SNB-75

SMILES: c1ccc(-c2cc(-c3cc(-c4ccccc4)no3)on2)cc1
- GI50 (NCI-H460): 45.1 µM (inactive)
- GI50 (NCI/ADR-RES): 29.7 µM (inactive)
- GI50 (CAKI-1): > 100 µM (inactive)
- GI50 (A549): 53.2 µM (inactive)
- GI50 (SK-MEL-2): > 100 µM (inactive)
- GI50 (RXF 393): 67.1 µM (inactive)
- GI50 (HOP-92): 24.5 µM (inactive)
- GI50 (Malme-3M): > 100 µM (inactive)
- GI50 (K562): 17.9 µM (inactive)
- GI50 (NCI-H522): > 100 µM (inactive)
- GI50 (SR): 11.5 µM (inactive)
- GI50 (SF-539): 15.1 µM (inactive)
- GI50 (T47D): 81.3 µM (inactive)
- GI50 (MDA-MB-435): > 100 µM (inactive)
- GI50 (RPMI-8226): > 100 µM (inactive)
- GI50 (SF-268): 66.1 µM (inactive)
- GI50 (KM12): > 100 µM (inactive)
- GI50 (MDA-MB-231): 24.1 µM (inactive)
- GI50 (SK-MEL-28): > 100 µM (inactive)
- GI50 (HOP-62): 72.1 µM (inactive)
- GI50 (TK-10): > 100 µM (inactive)
- GI50 (HT-29): > 100 µM (inactive)
- GI50 (UO-31): > 100 µM (inactive)
- GI50 (IGROV-1): 35.2 µM (inactive)
- GI50 (U-251): 29.2 µM (inactive)
- GI50 (EKVX): 72.6 µM (inactive)
- GI50 (OVCAR-4): 19.4 µM (inactive)
- GI50 (MOLT-4): 25.2 µM (inactive)
- GI50 (BT-549): > 100 µM (inactive)
- GI50 (SK-MEL-5): > 100 µM (inactive)
- GI50 (LOX IMVI): 40.8 µM (inactive)
- GI50 (MDA-N): > 100 µM (inactive)
- GI50 (SK-OV-3): 28.6 µM (inactive)
- GI50 (SNB-19): 49.3 µM (inactive)
- GI50 (Hs-578T): 47.6 µM (inactive)
- GI50 (UACC-257): > 100 µM (inactive)
- GI50 (HL-60): > 100 µM (inactive)
- GI50 (OVCAR-3): 39.5 µM (inactive)
- GI50 (PC-3): > 100 µM (inactive)
- GI50 (HCT-116): 55.8 µM (inactive)
- GI50 (ACHN): 29.3 µM (inactive)
- GI50 (HCC 2998): > 100 µM (inactive)
- GI50 (SF-295): 53.8 µM (inactive)
- GI50 (SN12C): 42.5 µM (inactive)
- GI50 (NCI-H226): 71 µM (inactive)
- GI50 (COLO 205): 45.6 µM (inactive)
- GI50 (786-0): 72.1 µM (inactive)
- GI50 (HCT-15): > 100 µM
- GI50 (CCRF-CEM): 27.4 µM (inactive)
- GI50 (MCF7): > 100 µM (inactive)
- GI50 (A498): > 100 µM (inactive)
- GI50 (M14): > 100 µM (inactive)
- GI50 (DU-145): > 100 µM (inactive)
- GI50 (NCI-H23): 49.1 µM (inactive)
- GI50 (OVCAR-8): 13.8 µM (inactive)
- GI50 (OVCAR-5): > 100 µM (inactive)
- GI50 (UACC-62): > 100 µM (inactive)
- GI50 (SW-620): > 100 µM (inactive)

SMILES: COc1cc2ccc1OCc1cccc(n1)COc1ccc(cc1OC)/C=N\c1ccc(cc1)-c1ccc(cc1)/N=C\2
- GI50 (NCI-H460): > 100 µM (inactive)
- GI50 (NCI/ADR-RES): > 100 µM (inactive)
- GI50 (CAKI-1): > 100 µM (inactive)
- GI50 (A549): > 100 µM (inactive)
- GI50 (SK-MEL-2): > 100 µM (inactive)
- GI50 (RXF 393): 71.6 µM (inactive)
- GI50 (HOP-92): > 100 µM (inactive)
- GI50 (Malme-3M): > 100 µM (inactive)
- GI50 (K562): > 100 µM (inactive)
- GI50 (NCI-H522): > 100 µM (inactive)
- GI50 (SR): > 100 µM (inactive)
- GI50 (SF-539): > 100 µM (inactive)
- GI50 (T47D): > 100 µM (inactive)
- GI50 (MDA-MB-435): > 100 µM (inactive)
- GI50 (SF-268): > 100 µM (inactive)
- GI50 (KM12): > 100 µM (inactive)
- GI50 (MDA-MB-231): > 100 µM (inactive)
- GI50 (HOP-62): 78 µM (inactive)
- GI50 (TK-10): > 100 µM (inactive)
- GI50 (HT-29): > 100 µM (inactive)
- GI50 (UO-31): > 100 µM (inactive)
- GI50 (IGROV-1): > 100 µM (inactive)
- GI50 (U-251): > 100 µM (inactive)
- GI50 (EKVX): > 100 µM (inactive)
- GI50 (OVCAR-4): > 100 µM (inactive)
- GI50 (MOLT-4): > 100 µM (inactive)
- GI50 (BT-549): > 100 µM (inactive)
- GI50 (SK-MEL-5): > 100 µM (inactive)
- GI50 (LOX IMVI): > 100 µM (inactive)
- GI50 (MDA-N): > 100 µM (inactive)
- GI50 (SK-OV-3): > 100 µM (inactive)
- GI50 (SNB-19): > 100 µM (inactive)
- GI50 (Hs-578T): > 100 µM (inactive)
- GI50 (UACC-257): > 100 µM (inactive)
- GI50 (HL-60): > 100 µM (inactive)
- GI50 (OVCAR-3): > 100 µM (inactive)
- GI50 (PC-3): > 100 µM (inactive)
- GI50 (HCT-116): > 100 µM (inactive)
- GI50 (ACHN): > 100 µM (inactive)
- GI50 (HCC 2998): > 100 µM (inactive)
- GI50 (SF-295): > 100 µM (inactive)
- GI50 (SN12C): > 100 µM (inactive)
- GI50 (NCI-H226): > 100 µM (inactive)
- GI50 (COLO 205): > 100 µM (inactive)
- GI50 (786-0): > 100 µM (inactive)
- GI50 (HCT-15): > 100 µM
- GI50 (CCRF-CEM): > 100 µM (inactive)
- GI50 (MCF7): > 100 µM (inactive)
- GI50 (A498): > 100 µM (inactive)
- GI50 (M14): > 100 µM (inactive)
- GI50 (DU-145): > 100 µM (inactive)
- GI50 (NCI-H23): > 100 µM (inactive)
- GI50 (OVCAR-8): > 100 µM (inactive)
- GI50 (SNB-75): > 100 µM (inactive)
- GI50 (UACC-62): > 100 µM (inactive)
- GI50 (SW-620): > 100 µM (inactive)

SMILES: COc1cc2c(cc1O)[C@]1(Cc3ccc4c(c3C1=O)OCO4)N(C)CC2
- GI50 (NCI-H460): > 100 µM (inactive)
- GI50 (NCI/ADR-RES): > 100 µM (inactive)
- GI50 (CAKI-1): > 100 µM (inactive)
- GI50 (A549): > 100 µM (inactive)
- GI50 (SK-MEL-2): > 100 µM (inactive)
- GI50 (RXF 393): > 100 µM (inactive)
- GI50 (HOP-92): > 100 µM (inactive)
- GI50 (Malme-3M): > 100 µM (inactive)
- GI50 (K562): > 100 µM (inactive)
- GI50 (NCI-H522): > 100 µM (inactive)
- GI50 (SR): > 100 µM (inactive)
- GI50 (SF-539): > 100 µM (inactive)
- GI50 (T47D): > 100 µM (inactive)
- GI50 (MDA-MB-435): > 100 µM (inactive)
- GI50 (RPMI-8226): > 100 µM (inactive)
- GI50 (SF-268): > 100 µM (inactive)
- GI50 (KM12): > 100 µM (inactive)
- GI50 (MDA-MB-231): > 100 µM (inactive)
- GI50 (SK-MEL-28): > 100 µM (inactive)
- GI50 (HOP-62): > 100 µM (inactive)
- GI50 (TK-10): > 100 µM (inactive)
- GI50 (HT-29): > 100 µM (inactive)
- GI50 (UO-31): > 100 µM (inactive)
- GI50 (IGROV-1): > 100 µM (inactive)
- GI50 (U-251): > 100 µM (inactive)
- GI50 (EKVX): > 100 µM (inactive)
- GI50 (OVCAR-4): > 100 µM (inactive)
- GI50 (MOLT-4): > 100 µM (inactive)
- GI50 (BT-549): > 100 µM (inactive)
- GI50 (SK-MEL-5): > 100 µM (inactive)
- GI50 (MDA-N): > 100 µM (inactive)
- GI50 (SK-OV-3): > 100 µM (inactive)
- GI50 (SNB-19): > 100 µM (inactive)
- GI50 (Hs-578T): > 100 µM (inactive)
- GI50 (UACC-257): > 100 µM (inactive)
- GI50 (HL-60): > 100 µM (inactive)
- GI50 (OVCAR-3): > 100 µM (inactive)
- GI50 (PC-3): > 100 µM (inactive)
- GI50 (HCT-116): > 100 µM (inactive)
- GI50 (ACHN): > 100 µM (inactive)
- GI50 (HCC 2998): > 100 µM (inactive)
- GI50 (SF-295): > 100 µM (inactive)
- GI50 (SN12C): > 100 µM (inactive)
- GI50 (NCI-H226): > 100 µM (inactive)
- GI50 (COLO 205): > 100 µM (inactive)
- GI50 (786-0): > 100 µM (inactive)
- GI50 (HCT-15): > 100 µM
- GI50 (CCRF-CEM): > 100 µM (inactive)
- GI50 (MCF7): > 100 µM (inactive)
- GI50 (A498): > 100 µM (inactive)
- GI50 (M14): > 100 µM (inactive)
- GI50 (DU-145): > 100 µM (inactive)
- GI50 (NCI-H23): > 100 µM (inactive)
- GI50 (OVCAR-8): > 100 µM (inactive)
- GI50 (SNB-75): 73.5 µM (inactive)
- GI50 (OVCAR-5): > 100 µM (inactive)
- GI50 (UACC-62): > 100 µM (inactive)
- GI50 (SW-620): > 100 µM (inactive)
